Experimental data: US9101638B2, “Boronic acid derivatives and therapeutic uses thereof” (Rempex Pharmaceuticals, Inc., priority 2013, dated 2015)
Like-named read-outs stand apart in the source and are kept apart here.

Experiments:
KP1009 (CTX-M-15) [1] = assay: Potentiation of aztreonam, strain KP1009; type: cell-based
KP1005 (CTX-M-14) = assay: Potentiation of aztreonam, strain KP1005; type: cell-based
KPC-2 = KPC-2 (Klebsiella pneumoniae, UniProt Q9F663); assay: Inhibition of nitrocefin cleavage by purified KPC-2; type: biochemical; conditions: nitrocefin reporter substrate, purified enzyme; read-out: Ki (KPC-2, NCF)
Sequence of KPC-2 (Q9F663 25-293, looked up, species assumed): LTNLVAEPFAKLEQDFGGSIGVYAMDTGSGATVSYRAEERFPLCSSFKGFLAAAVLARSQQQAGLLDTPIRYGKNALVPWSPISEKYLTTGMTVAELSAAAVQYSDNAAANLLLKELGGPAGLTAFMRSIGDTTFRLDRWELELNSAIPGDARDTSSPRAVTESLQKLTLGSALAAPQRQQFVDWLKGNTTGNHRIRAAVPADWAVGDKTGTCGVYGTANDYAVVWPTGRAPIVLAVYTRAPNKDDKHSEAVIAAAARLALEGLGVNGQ
Protocol: (§1) Purified enzymes were mixed with various concentrations of inhibitors in reaction buffer and incubated for 10 min at room temperature. Nitrocefin was added and substrate cleavage profiles were recorded at 490 nm every 10 sec for 10 min.

PAM1154/KPC-2 = assay: Biapenem potentiation in PAM1154/KPC-2 (MexAB-OprM lacking); type: cell-based, Pseudomonas aeruginosa
Protocol: (§2) Efflux of BLIs from Pseudomonas aeruginosa by the MexAB-OprM efflux pump was also evaluated. […] Due to expression of KPC-2 both strains became resistant to biapenem. […] Potency of BLIs to potentiate biapenem in these strains was determined. […] The ratio of MPC64 values for each BLI in PAM1032/KPC-2 (efflux proficient) and PAM1154/KPC-2 (efflux deficient) was determined to generate the Efflux Index (EI).

KP1004 (K-2) = assay: Potentiation of aztreonam, strain KP1004; type: cell-based; conditions: minimum BLI concentration inhibiting growth with 4 μg/mL aztreonam
ECL1002 = assay: Potentiation of aztreonam, strain ECL1002; type: cell-based; conditions: minimum BLI concentration inhibiting growth with 4 μg/mL aztreonam
ec308 (SHV-5) [2] = assay: Potentiation of tigemonam, strain ec308; type: cell-based; conditions: minimum BLI concentration inhibiting growth with 4 μg/mL tigemonam
PAM1032/KPC-2 = assay: Biapenem potentiation in PAM1032/KPC-2 (MexAB-OprM overexpressed); type: cell-based, Pseudomonas aeruginosa
Protocol: as §2

CTX-M-14 = CTX-M-14 (Escherichia coli, UniProt Q9L5C7); assay: Inhibition of nitrocefin cleavage by purified CTX-M-14; type: biochemical; conditions: nitrocefin reporter substrate, purified enzyme; read-out: Ki (CTX-M-14, NCF)
Sequence of CTX-M-14 (Q9L5C7 entry or part of it): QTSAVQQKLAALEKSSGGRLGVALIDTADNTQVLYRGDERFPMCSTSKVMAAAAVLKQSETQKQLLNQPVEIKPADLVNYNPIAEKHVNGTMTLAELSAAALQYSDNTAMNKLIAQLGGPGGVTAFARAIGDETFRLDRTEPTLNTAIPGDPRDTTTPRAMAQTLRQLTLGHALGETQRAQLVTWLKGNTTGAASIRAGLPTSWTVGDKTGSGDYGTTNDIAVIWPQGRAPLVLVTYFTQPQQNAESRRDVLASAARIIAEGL
Protocol: as §1

ec308 (SHV-5) [3] = assay: Potentiation of aztreonam, strain ec308; type: cell-based; conditions: minimum BLI concentration inhibiting growth with 4 μg/mL aztreonam
ec302 (TEM-10) [4] = assay: Potentiation of tigemonam, strain ec302; type: cell-based
KP1009 (CTX-M-15) [5] = assay: Potentiation of tigemonam, strain KP1009; conditions: minimum BLI concentration inhibiting growth with 4 μg/mL tigemonam
CathepsinG = molecular target: T1, CathepsinG (Homo sapiens, UniProt P08311); assay: Serine protease inhibition: cathepsin G; type: biochemical, mammalian; conditions: Table 8B
T1 construct: purchased EMD Millipore 219373
T1 sequence (P08311 21-244): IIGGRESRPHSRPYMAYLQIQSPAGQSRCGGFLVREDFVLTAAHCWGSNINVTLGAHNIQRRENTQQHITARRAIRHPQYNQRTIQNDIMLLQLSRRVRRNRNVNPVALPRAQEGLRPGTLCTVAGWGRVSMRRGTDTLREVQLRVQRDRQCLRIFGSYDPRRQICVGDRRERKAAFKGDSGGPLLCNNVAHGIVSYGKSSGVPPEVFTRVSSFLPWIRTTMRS
Protocol: (§3) The effect of selected BLIs on the enzymatic activity of some common mammalian serine proteases was evaluated.
(§4) 50 μl of the diluted enzyme was mixed with 50 μl of inhibitor at various concentrations and 50 μl of corresponding buffer (Table 7). Reaction mixtures were incubated for 10 min at 37° C. Subsequently, 50 μl of corresponding substrate (Table 7) was added and absorbance or fluorescence was monitored for 30 min on SpectraMax M2 plate reader (Molecular Devices). 4-(2-Aminoethyl)benzenesulfonyl fluoride hydrochloride (AEBSF) and leupeptin were used as positive controls. Rates of reaction were calculated and presented relative to “no treatment” control.

ec302 (TEM-10) [6] = assay: Potentiation of aztreonam, strain ec302; type: cell-based
EC1010 (CMY-6) [7] = type: cell-based
EC1010 (CMY-6) [8] = assay: Potentiation of aztreonam, strain EC1010; type: cell-based
SHV-12 = SHV-12 (Klebsiella pneumoniae, UniProt P0AD64, E235K/G234S/L31Q); assay: Inhibition of nitrocefin cleavage by purified SHV-12; type: biochemical; conditions: nitrocefin reporter substrate, purified enzyme; read-out: Ki (SHV-12, NCF)
Sequence of SHV-12 (P0AD64 22-286 L31Q/G234S/E235K): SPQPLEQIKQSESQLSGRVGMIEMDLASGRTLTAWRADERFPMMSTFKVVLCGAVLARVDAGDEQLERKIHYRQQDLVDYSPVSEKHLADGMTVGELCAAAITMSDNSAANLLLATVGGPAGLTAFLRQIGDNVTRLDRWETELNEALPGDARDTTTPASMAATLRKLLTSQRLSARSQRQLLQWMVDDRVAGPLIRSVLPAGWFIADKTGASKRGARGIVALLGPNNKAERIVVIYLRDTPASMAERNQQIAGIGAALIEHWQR
Protocol: as §1

CathepsinA = molecular target: T2, CathepsinA (Homo sapiens, UniProt P10619); assay: Serine protease inhibition: cathepsin A; type: biochemical, mammalian; conditions: Table 8B; read-out: IC50 CathepsinA
T2 construct: purchased R&D Systems 1049-SE
T2 sequence (P10619 29-480): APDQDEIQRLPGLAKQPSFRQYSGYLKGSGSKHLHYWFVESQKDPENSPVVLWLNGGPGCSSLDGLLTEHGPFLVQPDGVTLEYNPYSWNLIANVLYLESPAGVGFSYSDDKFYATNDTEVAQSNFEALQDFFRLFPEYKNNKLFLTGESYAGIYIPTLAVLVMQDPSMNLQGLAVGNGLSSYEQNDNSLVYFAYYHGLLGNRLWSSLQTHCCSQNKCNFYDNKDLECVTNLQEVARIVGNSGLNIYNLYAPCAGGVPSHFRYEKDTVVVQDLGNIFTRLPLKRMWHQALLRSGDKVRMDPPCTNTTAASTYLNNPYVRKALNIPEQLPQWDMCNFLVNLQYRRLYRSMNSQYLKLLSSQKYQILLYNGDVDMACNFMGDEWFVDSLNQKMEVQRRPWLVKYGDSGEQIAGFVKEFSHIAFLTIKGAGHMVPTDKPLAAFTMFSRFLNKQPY
Protocol: as §3, §4

Compound	AZT MPC4 CTX-M-15 KP1009 (KP1009 (CTX-M-15) [1])	AZT MPC4 CTX-M-14 KP1005 (KP1005 (CTX-M-14))	Ki (KPC-2) [nM]	PAM1154/KPC-2 Biapenem MPC64 (PAM1154/KPC-2)	AZT MPC4 K-2 KP1004 (KP1004 (K-2))	AZT MPC4 ECL1002 (ECL1002)	TIG MPC4 SHV-5 ec308 (ec308 (SHV-5) [2])	PAM1032/KPC-2 Biapenem MPC64 (PAM1032/KPC-2; BLI potency to decrease biapenem MIC 64-fold, 32 to 0.5 μg/ml, efflux proficient strain)	Ki (CTX-M-14) [nM]	AZT MPC4 SHV-5 ec308 (ec308 (SHV-5) [3])	TIG MPC4 TEM-10 ec302 (ec302 (TEM-10) [4])	TIG MPC4 CTX-M-15 KP1009 (KP1009 (CTX-M-15) [5])	IC50 (CathepsinG) [nM]	AZT MPC4 TEM-10 ec302 (ec302 (TEM-10) [6])	TIG MPC4 CMY-6 EC1010 (EC1010 (CMY-6) [7])	AZT MPC4 CMY-6 EC1010 (EC1010 (CMY-6) [8])	Ki (SHV-12) [nM]	IC50 (CathepsinA) [nM]	PAM1032/KPC-2 Biapenem MPC64 (PAM1032/KPC-2)
O=C(N[C@H]1Cc2cccc(C(=O)O)c2OB1O)c1cncc(F)c1 [Compound 14, (R)-3-(5-fluoronicotinamido)-2-hydroxy-3,4-dihydro-2H-benzo[e][1,2]oxaborinine-8-carboxylic acid]	Y (key: X = MIC of less than 1 μg/mL; Y = MIC of 1 μg/mL to 10 μg/mL; Z = MIC of greater than 10 μg/mL)	Y (key: X = MIC of less than 1 μg/mL; Y = MIC of 1 μg/mL to 10 μg/mL; Z = MIC of greater than 10 μg/mL)	> 10	X (key: X = Less than 10; Y = 10 to 40; Z Greater than 40)	Y (Y = MIC of 1 μg/mL to 10 μg/mL)	Y (Y = MIC of 1 μg/mL to 10 μg/mL)	Y (Y = MIC of 1 μg/mL to 10 μg/mL)	Z (Z Greater than 40)	< 1	Y (Y = MIC of 1 μg/mL to 10 μg/mL)	Y (key: X = MIC of less than 1 μg/mL; Y = MIC of 1 μg/mL to 10 μg/mL; Z = MIC of greater than 10 μg/mL)	Y (Y = MIC of 1 μg/mL to 10 μg/mL)	15000 to 500000	Y (key: X = MIC of less than 1 μg/mL; Y = MIC of 1 μg/mL to 10 μg/mL; Z = MIC of greater than 10 μg/mL)	Y (key: X = MIC of less than 1 μg/mL; Y = MIC of 1 μg/mL to 10 μg/mL; Z = MIC of greater than 10 μg/mL)	Y (key: X = MIC of less than 1 μg/mL; Y = MIC of 1 μg/mL to 10 μg/mL; Z = MIC of greater than 10 μg/mL)	< 1	15000 to 500000	
NC(=O)N[C@H]1Cc2cccc(C(=O)O)c2OB1O [Compound 6, (R)-2-hydroxy-3-ureido-3,4-dihydro-2H-benzo[e][1,2]oxaborinine-8-carboxylic acid]	Y (key: X = MIC of less than 1 μg/mL; Y = MIC of 1 μg/mL to 10 μg/mL; Z = MIC of greater than 10 μg/mL)	Y (key: X = MIC of less than 1 μg/mL; Y = MIC of 1 μg/mL to 10 μg/mL; Z = MIC of greater than 10 μg/mL)		X (key: X = Less than 10; Y = 10 to 40; Z Greater than 40)	X (X = MIC of less than 1 μg/mL)	Z (Z = MIC of greater than 10 μg/mL)	Z (Z = MIC of greater than 10 μg/mL)		1 to 10	Y (Y = MIC of 1 μg/mL to 10 μg/mL)	Z (key: X = MIC of less than 1 μg/mL; Y = MIC of 1 μg/mL to 10 μg/mL; Z = MIC of greater than 10 μg/mL)	Y (Y = MIC of 1 μg/mL to 10 μg/mL)		Z (key: X = MIC of less than 1 μg/mL; Y = MIC of 1 μg/mL to 10 μg/mL; Z = MIC of greater than 10 μg/mL)	X (key: X = MIC of less than 1 μg/mL; Y = MIC of 1 μg/mL to 10 μg/mL; Z = MIC of greater than 10 μg/mL)	Y (key: X = MIC of less than 1 μg/mL; Y = MIC of 1 μg/mL to 10 μg/mL; Z = MIC of greater than 10 μg/mL)	1 to 10		X (key: X = Less than 10; Y = 10 to 40; Z Greater than 40)
